Structures can show the parent of a compound that is named as a salt.
Key:
[1] = target: T1, rat NaPi-2b (Rattus norvegicus, UniProt Q9JJ09); assay: Sodium-dependent phosphate uptake of Xenopus oocytes which expressed NaPi-2b (32P); type: cell-based; conditions: Xenopus oocytes expressing rat NaPi-2b, 32P radioactive phosphorus; read-out: IC50 (phosphate uptake inhibitory activity)
T1 construct: expressed in transfected cells; host or cells: Xenopus oocytes injected with cRNA
T1 sequence (Q9JJ09 1-695): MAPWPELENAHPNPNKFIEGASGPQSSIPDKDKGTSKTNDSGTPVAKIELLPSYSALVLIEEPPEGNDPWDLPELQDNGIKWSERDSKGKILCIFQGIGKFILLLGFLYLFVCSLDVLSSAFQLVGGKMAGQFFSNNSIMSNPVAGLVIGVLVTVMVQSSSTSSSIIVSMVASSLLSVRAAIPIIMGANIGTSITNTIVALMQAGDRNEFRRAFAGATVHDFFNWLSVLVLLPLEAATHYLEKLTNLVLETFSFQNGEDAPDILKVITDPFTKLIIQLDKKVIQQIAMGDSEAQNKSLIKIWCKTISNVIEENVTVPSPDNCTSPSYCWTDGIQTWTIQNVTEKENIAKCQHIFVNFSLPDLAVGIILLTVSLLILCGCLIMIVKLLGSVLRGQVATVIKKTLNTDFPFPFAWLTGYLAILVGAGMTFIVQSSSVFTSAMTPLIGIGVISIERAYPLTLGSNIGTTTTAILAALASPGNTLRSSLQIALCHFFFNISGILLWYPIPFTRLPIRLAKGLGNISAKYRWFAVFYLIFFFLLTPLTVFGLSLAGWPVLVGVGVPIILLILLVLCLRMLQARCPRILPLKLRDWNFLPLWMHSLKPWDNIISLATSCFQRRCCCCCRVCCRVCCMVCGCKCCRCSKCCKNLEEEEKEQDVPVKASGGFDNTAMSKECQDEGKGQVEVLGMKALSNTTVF
Summary of the method: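 Rat small-intestine NaPi-2b cRNA injected into Xenopus oocytes, expressed for 2 days. Sodium-dependent phosphate uptake measured with 32P; % inhibition at 300 and 100 μM taken from the same inhibition curve.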

[2] = system: SD rats; assay: Inhibitory activity against 32P absorption from intestinal tract; type: in vivo; conditions: Rattus norvegicus, oral, read-out: Blood radioactivity inhibition, %
Method: Pharmacological Test Example 4
Inhibitory Activity Against ^32P Absorption from Intestinal Tract
SD rats (6 to 7 weeks old, obtained from Charles River Japan, Inc. (Japan)) were raised with low-phosphorus diet (phosphorus content 0.1%, manufactured by Oriental Yeast Co., Ltd. (Japan)) for 3 to 4 days and then fasted for about 24 hr for experiment. ^32P was diluted with purified water or liquid feed (CLEA JAPAN INC. (Japan)) to 0.7 to 3.5 MBq/ml and was forcibly orally administered at a dose of 5 ml/kg (administered into the gaster through an oral probe). The compounds or media were forcibly orally administered at a dose of 5 ml/kg (divided dose of twice), 30 min before the administration of ^32P and simultaneously with the administration of ^32P. Blood was collected from caudal artery 30 min, 45 min, or 60 min after ^32P administration, and blood ^32P radioactivity was measured with a liquid scintillation counter. Inhibition of an increase in blood radioactivity was used as a measure of inhibition of phosphate absorption from the intestinal tract.
The results are expressed in terms of the percentage inhibition determined by the following equation. (Blood radioactivity for group with the administration of medium−Blood radioactivity for group with the administration of compound)/(Blood radioactivity for group with the administration of medium)×100
t-Test was used for a significant test of the average value difference of blood radioactivity.

[3] = target: T2, human NaPi-2a (Homo sapiens, UniProt Q06495); assay: Sodium-dependent phosphate uptake of Xenopus oocytes which expressed NaPi-2a (32P); type: cell-based; conditions: phosphate uptake, Xenopus oocytes expressing human NaPi-2a; five concentration levels
T2 construct: expressed in transfected cells
T2 sequence (Q06495 1-639): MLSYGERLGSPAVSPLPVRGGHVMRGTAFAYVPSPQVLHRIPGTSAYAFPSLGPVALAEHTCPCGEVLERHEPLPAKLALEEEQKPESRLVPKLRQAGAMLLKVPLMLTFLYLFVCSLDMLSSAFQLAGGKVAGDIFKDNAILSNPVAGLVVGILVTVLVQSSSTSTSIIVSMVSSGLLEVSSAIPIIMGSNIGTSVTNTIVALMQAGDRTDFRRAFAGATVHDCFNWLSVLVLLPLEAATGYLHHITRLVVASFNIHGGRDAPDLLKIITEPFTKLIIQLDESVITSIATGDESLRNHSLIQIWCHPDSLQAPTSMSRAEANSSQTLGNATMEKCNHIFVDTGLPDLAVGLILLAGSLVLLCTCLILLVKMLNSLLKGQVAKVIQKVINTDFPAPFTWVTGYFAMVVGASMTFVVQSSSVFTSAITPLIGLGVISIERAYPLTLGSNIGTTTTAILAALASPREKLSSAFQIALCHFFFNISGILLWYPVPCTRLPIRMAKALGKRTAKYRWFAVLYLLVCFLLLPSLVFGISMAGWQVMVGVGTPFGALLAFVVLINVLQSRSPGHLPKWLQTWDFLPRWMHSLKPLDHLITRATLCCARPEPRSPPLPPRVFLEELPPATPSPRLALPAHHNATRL
Source text: Experiment of Sodium-Dependent Phosphate Uptake of Xenopus oocytes which Expressed NaPi-2a
In the test, a group with the addition of choline chloride (Choline Cl) was used as a negative control for nonspecific uptake, and PFA (phosphonoformic acid) was used as a positive control for phosphate transport inhibition.

Row | Structure (SMILES) | IC50 [1] [µM] | IC50 [3] [µM] | inhibition in vivo at 360 mg/kg ([2]; dose 360 mg/kg) [%] | inhibition in vivo at 400 mg/kg [2] [%] | inhibition in vivo at 320 mg/kg [2] [%]
1 | Cc1ccc(/C=N/NC(=O)c2ccccc2NC(=O)c2ccncc2)cc1C [Compound 163, N-[2-(3,4-Dimethyl-benzylidene-hydrazinocarbonyl)-phenyl]-isonicotinamide hydrochloride] | 1.6 | – | 57.8 | – | –
2 | COc1ccc(C(=O)Nc2ccc(Br)cc2C(=O)N/N=C/c2ccc(C)c(C)c2)cc1OC [Compound 91, N-[4-Bromo-2-(3,4-dimethyl-benzylidene-hydrazinocarbonyl)-phenyl]-3,4-dimethoxy-benzamide] | 0.22 | – | – | – | 28.3
3 | Cc1ccc(/C=N/NC(=O)c2cc(Br)ccc2NC(=O)c2cccnc2)cc1 [Compound 252, N-[4-Bromo-2-(4-methyl-benzylidene-hydrazinocarbonyl)-phenyl]-nicotinamide hydrochloride] | 1.49 | – | – | 29.2 | –
4 | CCN(CC)CCN(CCN(CC)CC)Cc1cccc(C(=O)Nc2scc(C)c2C(=O)N/N=C/c2ccc(C)c(C)c2)c1 [Compound 838, 3-{[Bis-(2-diethylamino-ethyl)-amino]-methyl}-N-[3-(3,4-dimethyl-benzylidene-hydrazinocarbonyl)-4-methyl-thiophen-2-yl]-benzamide] | < 3 | 10.2 | – | – | –
5 | CCN(CC)CCN(CCN(CC)CC)Cc1cccc(C(=O)Nc2scc(C)c2C(=O)N/N=C/c2ccc(C)cc2)c1 [Compound 839, 3-{[Bis-(2-diethylamino-ethyl)-amino]-methyl}-N-[4-methyl-3-(4-methyl-benzylidene-hydrazinocarbonyl)-thiophen-2-yl]-benzamide] | 5.04 | 23.2 | – | – | –

Now from value to compound, other results behind:

Row | IC50 [1] [µM] | IC50 [3] [µM] | Structure (SMILES) | inhibition in vivo at 360 mg/kg ([2]; dose 360 mg/kg) [%] | inhibition in vivo at 400 mg/kg [2] [%] | inhibition in vivo at 320 mg/kg [2] [%]
6 | 4.76 | – | Cc1ccc(/C=N/NC(=O)c2ccccc2NC(=O)c2cccnc2)cc1 [Compound 164, N-[2-(4-Methyl-benzylidene-hydrazinocarbonyl)-phenyl]-nicotinamide hydrochloride] | – | 55 | –
7 | 7.19 | – | O=C(Nc1ccc(Br)cc1C(=O)N/N=C/c1cccc(F)c1)c1cccs1 [Compound 157, Thiophene-2-carboxylic acid [4-bromo-2-(3-fluoro-benzylidene-hydrazinocarbonyl)-phenyl]-amide] | – | – | 20.7
8 | 4.7 | 3.72 | O=C(Nc1sc2ccccc2c1C(=O)N/N=C/c1cccc(F)c1)c1cccc(CN2CCC(CO)CC2)c1 [Compound 801, N-[3-(3-Fluoro-benzylidene-hydrazinocarbonyl)-benzo[b]thiophen-2-yl]-3-(4-hydroxymethyl-piperidin-1-ylmethyl)-benzamide] | – | – | –
9 | 3.91 | 1.33 | COc1ccc(/C=N/NC(=O)c2cc(N3CCCCC3)ccc2NC(=O)c2cccc(CSCCC(=O)O)c2)cc1 [Compound 890, 3-{3-[2-(4-Methoxy-benzylidene-hydrazinocarbonyl)-4-piperidin-1-yl-phenylcarbamoyl]-benzylsulfanyl}-propionic acid] | – | – | –
10 | 1.2 | 5.96 | O=C(Nc1sc2ccccc2c1C(=O)N/N=C/c1ccc(Cl)c(C(F)(F)F)c1)c1cccc(CN2CCC(CO)CC2)c1 [Compound 802, N-[3-(4-Chloro-3-trifluoromethyl-benzylidene-hydrazinocarbonyl)-benzo[b]thiophen-2-yl]-3-(4-hydroxymethyl-piperidin-1-ylmethyl)-benzamide] | – | – | –
11 | 1.29 | 3.59 | Cc1ccc(/C=N/NC(=O)c2c(NC(=O)c3cccc(CN(CC(C)O)CC(C)O)c3)sc3c2CCCC3)cc1 (stereo not drawn) [Compound 628, 3-{[Bis-(2-hydroxy-propyl)-amino]-methyl}-N-[3-(4-methyl-benzylidene-hydrazinocarbonyl)-4,5,6,7-tetrahydro-benzo-[b]thiophen-2-yl]-benzamide] | – | – | –
12 | < 1 | < 1 | O=C(Nc1ccc(N2CCCCC2)cc1C(=O)N/N=C/c1cccc(F)c1)c1cccc(CSCC(O)CO)c1 (stereo not drawn) [Compound 902, 3-(2,3-Dihydroxy-propylsulfanylmethyl)-N-[2-(3-fluoro-benzylidene-hydrazinocarbonyl)-4-piperidin-1-yl-phenyl]-benzamide] | – | – | –

Reference: patent US8134015B2, “Compound inhibiting in vivo phosphorous transport and medicine containing the same” (Kyowa Hakko Kirin Co., Ltd., priority 2003, dated 2012)
